# Experimental data: patent US20210387966A1, “2-AMINO-N-HETEROARYL-NICOTINAMIDES AS NAV1.8 INHIBITORS” (Merck Sharp & Dohme Corp., priority 2018, published 2021)
# Biological target: T1, human Nav1.8 channels (Homo sapiens, UniProt Q9Y5Y9)
# T1 construct: expressed in transfected cells
# Assay: Nav1.8 Qube automated patch-clamp assay
# Format: cell-based
# Conditions: human Nav1.8 stably expressed in HEK 293 cells; whole-cell voltage clamp, room temperature; resting or inactivated state not specified; read-out: IC50 values (nM) for Examples in the Nav1.8 Qube Assay
# Procedure: Compounds were tested on human Nav1.8 and Nav1.5 channels stably expressed in human embryo kidney (HEK) 293 cells. Sodium current measurements on Qube® were conducted as follows: automated 384-well patch-clamp assays on the Qube® platform (Sophion Biosciences) were used to measure the inhibition of sodium flow through human Nav1.8 and Nav1.5 channels. Whole-cell voltage-clamp recordings were performed in QChips® (Sophion Biosciences) at room temperature. Nav1.8 current measurements on Qube® were obtained as follows: Nav1.8 currents were elicited with a 10 second 1 Hertz (Hz) pulse train from a holding potential of −90 millivolts (mV), delivered to the cells once per minute in the control condition (DMSO only) and after compound addition. The 1 hertz pulse train stimulation consisted of ten test pulses to 10 millivolt (mV) for 20 milliseconds (ms), each of which was followed by a 980 millisecond repolarization to −67 millivolts. At the end of the 10 second pulse train stimulation, a second hyperpolarization step to −100 millivolt (mV) was used to recover Nav1.8 from fast inactivation. The peak currents elicited by the 1st and 10th test pulses were used to determine IC50 values for resting inhibition and inactivated state inhibition. Nav1.5 current measurements on Qube® were obtained as follows: Nav1.5 currents were elicited with a 20 second 3 Hertz pulse train in the control condition (DMSO only) and after compound addition. The pulse train consisted of sixty 20 millisecond test pulses to 0 millivolt from a holding potential of −80 millivolt (mV). The average peak currents elicited by the last 3 test pulses were used to determine IC50 values for Nav1.5 inhibition.
# The following buffers were used for the Qube® recordings: External buffer for Nav1.8 Qube® recording: 150 NaCl, 2 CaCl2, 5 KCl, 1 Mg Cl2, 10 HEPES, 12 Dextrose; External buffer for Qube® Nav1.5 recording: 120 N-Methyl-D-Glucamine, 40 NaCl, 1 KCl, 2.7 CaCl2, 5 HEPES, 0.5 MgCl2: and Internal buffer for Qube® recording: 120 CsF, 30 CsCl, 10 EGTA, 5 HEPES, 5 NaF, 2 MgCl2.
# For all Qube® experiments offline analysis was used to determine percent inhibition as a function of drug concentration. IC50 values were determined by fitting to the Hill equation.
# T1 sequence (Q9Y5Y9 whole entry): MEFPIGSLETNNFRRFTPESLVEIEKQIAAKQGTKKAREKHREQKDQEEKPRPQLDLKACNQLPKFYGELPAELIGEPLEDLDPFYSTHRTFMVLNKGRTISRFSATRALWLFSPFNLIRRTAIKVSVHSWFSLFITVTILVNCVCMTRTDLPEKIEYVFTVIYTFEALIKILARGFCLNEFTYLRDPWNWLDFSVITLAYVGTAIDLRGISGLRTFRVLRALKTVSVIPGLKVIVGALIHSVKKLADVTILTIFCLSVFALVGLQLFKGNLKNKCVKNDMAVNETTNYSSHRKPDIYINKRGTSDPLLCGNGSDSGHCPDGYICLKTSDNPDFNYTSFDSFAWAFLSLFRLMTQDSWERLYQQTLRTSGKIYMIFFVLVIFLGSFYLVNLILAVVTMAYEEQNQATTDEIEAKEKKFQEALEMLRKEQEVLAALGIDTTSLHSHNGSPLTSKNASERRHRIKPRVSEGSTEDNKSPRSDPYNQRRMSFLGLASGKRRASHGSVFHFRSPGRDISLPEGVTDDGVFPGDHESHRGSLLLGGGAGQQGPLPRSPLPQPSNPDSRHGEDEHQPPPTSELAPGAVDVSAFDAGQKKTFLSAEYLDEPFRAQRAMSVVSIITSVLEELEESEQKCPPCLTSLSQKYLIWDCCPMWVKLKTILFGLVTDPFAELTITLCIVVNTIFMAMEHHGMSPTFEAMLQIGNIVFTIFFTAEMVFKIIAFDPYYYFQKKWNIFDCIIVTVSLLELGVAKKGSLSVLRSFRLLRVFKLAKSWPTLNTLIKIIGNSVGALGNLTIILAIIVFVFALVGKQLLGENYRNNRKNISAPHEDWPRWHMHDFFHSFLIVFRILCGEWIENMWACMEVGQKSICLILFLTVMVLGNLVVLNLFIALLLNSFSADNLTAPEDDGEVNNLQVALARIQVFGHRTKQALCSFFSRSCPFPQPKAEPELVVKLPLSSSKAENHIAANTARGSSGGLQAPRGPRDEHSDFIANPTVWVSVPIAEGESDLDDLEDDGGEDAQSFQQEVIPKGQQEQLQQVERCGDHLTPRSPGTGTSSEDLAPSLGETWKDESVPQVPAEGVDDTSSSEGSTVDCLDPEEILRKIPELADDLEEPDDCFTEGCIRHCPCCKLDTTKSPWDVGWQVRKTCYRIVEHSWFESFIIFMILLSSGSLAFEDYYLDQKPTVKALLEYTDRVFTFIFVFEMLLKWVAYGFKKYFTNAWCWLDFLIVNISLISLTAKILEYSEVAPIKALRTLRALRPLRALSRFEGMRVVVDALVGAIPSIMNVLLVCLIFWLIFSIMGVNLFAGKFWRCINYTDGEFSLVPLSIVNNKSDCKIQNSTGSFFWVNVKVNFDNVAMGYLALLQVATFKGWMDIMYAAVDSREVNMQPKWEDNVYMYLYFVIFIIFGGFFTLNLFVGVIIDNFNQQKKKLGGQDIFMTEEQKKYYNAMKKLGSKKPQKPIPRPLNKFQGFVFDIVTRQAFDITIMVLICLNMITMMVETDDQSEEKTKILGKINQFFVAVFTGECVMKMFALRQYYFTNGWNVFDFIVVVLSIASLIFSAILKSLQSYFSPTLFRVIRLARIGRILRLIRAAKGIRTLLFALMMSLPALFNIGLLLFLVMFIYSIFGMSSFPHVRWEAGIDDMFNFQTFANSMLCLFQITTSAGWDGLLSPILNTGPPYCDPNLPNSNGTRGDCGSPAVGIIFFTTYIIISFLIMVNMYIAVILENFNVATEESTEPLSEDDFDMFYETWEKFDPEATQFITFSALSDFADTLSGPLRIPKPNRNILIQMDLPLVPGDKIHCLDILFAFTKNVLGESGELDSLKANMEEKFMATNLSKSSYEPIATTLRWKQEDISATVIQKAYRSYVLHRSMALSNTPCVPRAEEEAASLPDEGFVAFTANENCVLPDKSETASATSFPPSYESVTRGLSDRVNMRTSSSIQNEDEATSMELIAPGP
row,IC50,SMILES
1,1250 nM,"CS(=O)(=O)n1ncc(NC(=O)c2cc(C(F)(F)F)cnc2N2CCCC(F)(F)CC2)c1C1CC1 [Example 37, N-[5-cyclopropyl-1-(methylsulfonyl)-1H-pyrazol-4-yl]-2-(4,4-difluoroazepan-1-yl)-5-(trifluoromethyl)pyridin-3-carboxamide]"
2,4 nM,"CS(=O)(=O)n1cc(NC(=O)c2cc(C(F)(F)F)cnc2N2CCCC(F)(F)CC2)c2cccnc21 [Example 30, 2-(4,4-difluoroazepan-1-yl)-N-[1-(methylsulfonyl)-1H-pyrrolo[2,3-b]pyridin-3-yl]-5-(trifluoromethyl)pyridine-3-carboxamide]"
3,50 nM,"CS(=O)(=O)n1nc(NC(=O)c2cc(C(F)(F)F)cnc2N2CCCC(F)(F)CC2)c2ccccc21 [Example 34, 2-(4,4-difluoroazepan-1-yl)-N-[1-(methylsulfonyl)-1H-indazol-3-yl]-5-(trifluoromethyl)pyridine-3-carboxamide]"
4,2.8 nM,"C[C@@H]1CN(c2ncc(C(F)(F)F)cc2C(=O)Nc2ccnc(S(N)(=O)=O)c2)C[C@H](C)C1(F)F [Example 52, 2-[(3S,5R)-4,4-difluoro-3,5-dimethyl-1-piperidyl]-N-(2-sulfamoyl-4-pyridyl)-5-(trifluoromethyl)pyridin-3-carboxamide]"
5,3.3 nM,"CC1CN(c2nc(C(F)(F)F)c(Cl)cc2C(=O)Nc2ccnc(S(N)(=O)=O)c2)CCC1(F)F (single isomer, unassigned) [Example 164, (S or R)-5-chloro-2-(4,4-difluoro-3-methylpiperidin-1-yl)-N-(2-sulfamoylpyridin-4-yl)-6-(trifluoromethyl)nicotinamide]"
6,21 nM,"NS(=O)(=O)c1cc(NC(=O)c2cc(C(F)(F)F)cnc2N2CCC[C@H]2C(F)(F)F)ccn1 [Example 126, N-(2-sulfamoylpyridin-4-yl)-5-(trifluoromethyl)-2-[(2S)-2-(trifluoromethyl)pyrrolidin-1-yl]pyridine-3-carboxamide]"
7,54 nM,"NS(=O)(=O)c1cc(NC(=O)c2cc(C(F)(F)F)cnc2N2CCOC(C(F)(F)F)CC2)ccn1 (single isomer, unassigned) [Example 118, (R or S)-N-(2-sulfamoylpyridin-4-yl)-5-(trifluoromethyl)-2-(7-(trifluoromethyl)-1,4-oxazepan-4-yl)nicotinamide]"
8,60 nM,"NS(=O)(=O)c1cc(NC(=O)c2cc(C(F)(F)F)cnc2N2CC3CC2CC3(F)F)ccn1 (single isomer, unassigned) [Example 71, 2-[(1R,4R or 1S,4S)-5,5-difluoro-2-azabicyclo[2.2.1]heptan-2-yl]-N-(2-sulfamoyl-4-pyridyl)-5-(trifluoromethyl)pyridine-3-carboxamide]"
9,2370 nM,"NS(=O)(=O)c1cc(NC(=O)c2cc(C(F)(F)F)cnc2N2CCC(Oc3cccc(C(F)(F)F)c3)CC2)ccn1 [Example 98, N-(2-sulfamoyl-4-pyridyl)-5-(trifluoromethyl)-2-[4-[3-(trifluoromethyl)phenoxy]-1-piperidyl]pyridine-3-carboxamide]"

# Second part, the compound before the results:
row,SMILES,IC50
1,"Cc1nc(N2CCC(F)(F)CC2)c(C(=O)Nc2ccnc(S(N)(=O)=O)c2)cc1F [Example 178, 2-(4,4-difluoropiperidin-1-yl)-5-fluoro-6-methyl-N-(2-sulfamoylpyridin-4-yl)nicotinamide]",13 nM
2,"NS(=O)(=O)c1cc(NC(=O)c2cc(C(F)(F)F)cnc2N2CCC(c3ccc(C(F)(F)F)cc3)C2)ccn1 (centres unmarked) [Example 85, N-(2-sulfamoyl-4 pyridyl)-5-(trifluoromethyl)-2-[3-[4-(trifluoromethyl)phenyl]pyrrolidin-1-yl]pyridine-3-carboxamide]",152 nM
3,"NS(=O)(=O)c1cc(NC(=O)c2cc(C(F)(F)F)cnc2N2CCC(F)(F)CC2)ccn1 [Example 175, 2-(4,4-difluoropiperidin-1-yl)-N-(2-sulfamoylpyridin-4-yl)-5-(trifluoromethyl) nicotinamide]",53 nM
4,"N#CC1CCN(c2ncc(C(F)(F)F)cc2C(=O)Nc2ccnc(S(N)(=O)=O)c2)C1 (single isomer, unassigned) [Example 130, (R or S)-2-(3-cyanopyrrolidin-1-yl)-N-(2-sulfamoylpyridin-4-yl)-5-(trifluoromethyl)nicotinamide]",3880 nM
5,"COc1cncc(NC(=O)c2cc(C(F)(F)F)cnc2N2CCCCCC2)c1 [Example 194, 2-(azepan-1-yl)-N-(5-methoxy-3-pyridyl)-5-(trifluoromethyl)-pyridine-3-carboxamide]",1550 nM
6,"NS(=O)(=O)c1cc(NC(=O)c2cc(C(F)(F)F)cnc2N2CC3CC(F)(F)C3C2)ccn1 (single isomer, unassigned) [Example 64, 2-((1R,2S or 1S,5R)-6,6-difluoro-3-azabicyclo[3.2.0]heptan-3-yl)-N-(2-sulfamoylpyridin-4-yl)-5-(trifluoromethyl)nicotinamide]",23 nM
7,"C[C@H]1CN(c2ncc(C(F)(F)F)cc2C(=O)Nc2ccnc(S(N)(=O)=O)c2)CCO1 [Example 110, 2-[(2S)-2-methylmorpholin-4-yl]-N-(2-sulfamoyl-4-pyridyl)-5-(trifluoromethyl)pyridine-3-carboxamide]",505 nM
8,Cc1nc(N2CCC(F)(F)CC2)c(C(=O)Nc2ccnc(S(N)(=O)=O)c2)cc1OCC(F)(F)F [Example 183],82 nM
9,"C[C@@H]1CN(c2ncc(C(F)(F)F)cc2C(=O)Nc2ccnc(S(N)(=O)=O)c2)CCC1(F)F (single isomer, unassigned) [Example 48]",12 nM
10,"NS(=O)(=O)c1cc(NC(=O)c2cc(C3CC3)nnc2N2CCCC(F)(F)CC2)ccn1 [Example 39, 6-cyclopropyl-3-(4,4-difluoroazepan-1-yl)-N-(2-sulfamoylpyridin-4-yl)pyridazine-4-carboxamide]",441 nM
11,"NS(=O)(=O)c1cc(NC(=O)c2cc(C(F)(F)F)cnc2N2CCCCC2c2ccc(F)cc2)ccn1 (centres unmarked) [Example 95, 2-[2-(4-fluorophenyl)-1-piperidyl]-N-(2-sulfamoyl-4-pyridyl)-5-(trifluoromethyl)pyridine-3-carboxamide]",1420 nM
12,"NS(=O)(=O)c1cc(NC(=O)c2cc(C(F)(F)F)cnc2N2CCc3cccc(C(F)(F)F)c3C2)ccn1 [Example 89, N-(2-sulfamoyl-4-pyridyl)-5-(trifluoromethyl)-2-[8-(trifluoromethyl)-3,4-dihydro-1H-isoquinolin-2-yl]pyridine-3-carboxamide]",275 nM
13,"Cc1ccc(C(=O)Nc2cncc(S(N)(=O)=O)c2)c(N2CCC(F)(F)CC2)n1 [Example 9, 2-(4,4-difluoro-1-piperidyl)-6-methyl-N-(5-sulfamoyl-3-pyridyl)pyridine-3-carboxamide]",816 nM
14,"NS(=O)(=O)c1cc(NC(=O)c2cc(C(F)(F)F)cnc2N2CCN(CC(F)(F)F)CC2)ccn1 [Example 100, N-(2-sulfamoyl-4-pyridyl)-2-[4-(2,2,2-trifluoroethyl)piperazin-1-yl]-5-(trifluoromethyl)pyridine-3-carboxamide]",4630 nM
15,"CC1CN(c2ncc(C(F)(F)F)cc2C(=O)Nc2ccnc(S(N)(=O)=O)c2)CCC1(Cl)Cl (single isomer, unassigned) [Example 49, (R or S)-2-(4,4-dichloro-3-methylpiperidin-1-yl)-N-(2-sulfamoylpyridin-4-yl)-5-(trifluoromethy)nicotinamide]",1.4 nM
16,"NS(=O)(=O)c1cc(NC(=O)c2cc(C(F)(F)F)cnc2N2CCCC(c3cc(F)cc(F)c3)C2)ccn1 (centres unmarked) [Example 81, 2-[3-(3,5-difluorophenyl)-1-piperidyl]-N-(2-sulfamoyl-4-pyridyl)-5-(trifluoromethyl)pyridine-3-carboxamide]",39 nM
17,"NS(=O)(=O)c1cc(NC(=O)c2cc(C(F)(F)F)cnc2N2C[C@H]3CC[C@H]3C2)ccn1 [Example 68, 2-((1R,5S)-3-azabicyclo[3.2.0]heptan-3-yl)-N-(2-sulfamoylpyridin-4-yl)-5-(trifluoromethyl)nicotinamide]",29 nM
18,"N#Cc1cc(C(=O)Nc2ccnc(S(N)(=O)=O)c2)c(N2CCC(F)(F)CC2)nc1C(F)(F)F [Example 43, 5-cyano-2-(4,4-difluoropiperidin-1-yl)-N-(2-sulfamoylpyridin-4-yl)-6-(trifluoromethyl)nicotinamide]",37 nM
19,"NS(=O)(=O)c1cc(NC(=O)c2cc(C3CC3)c(C(F)(F)F)nc2N2CCC(F)(F)CC2)ccn1 [Example 181, 5-cyclopropyl-2-(4,4-difluoropiperidin-1-yl)-N-(2-sulfamoylpyridin-4-yl)-6-(trifluoromethyl)nicotinamide]",17 nM
20,"NC(=O)c1cc(NC(=O)c2cc(C(F)(F)F)cnc2N2CCCCCC2)ccn1 [Example 203, 4-(2-(azepan-1-yl)-5-(trifluoromethyl)nicotinamido)picolinamide]",139 nM
